Data: patent publication US8269026B2, “Lupane derivatives useful for treating HIV” (priority 2008, dated 2012)

Test system: HIV-1 (HIVIIIB) replication in MT2 cell line
Experiment: HIV-1 replication in MT2 cell line with and without 30% human serum (viral RT activity in supernatant)
Format: cell-based
Conditions: Human immunodeficiency virus 1, MT2 cells, with 30% human serum, average IC50 if tested more than once, read-out: MT2 (HIVIIIB) with HS 30% IC50 range
Method in brief: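 Read-out is supernatant reverse transcriptase activity on day 5 post-infection, giving IC50 and IC90. Compounds were titrated in complete medium ± 30% human serum, re-dosed after 3 days, on MT2 cells exposed for 3 h to HIVIIIB at MOI 0.5 then washed.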

Structure (SMILES) | IC50
CC(C)C1=C2[C@H]3CC[C@@H]4[C@@]5(C)CC[C@H](OC(=O)CC(C)(C)C(=O)O)C(C)(C)[C@@H]5CC[C@@]4(C)[C@]3(C)CC[C@@]2(NC(=O)CCN2CCCC2=O)CC1=O [19-41, 3β-O-(3′,3′-Dimethylsuccinyl)-17β-[3-(2-oxo-pyrrolidin-1-yl)-propionamido]-21-oxolup-18-ene] | < 0.199 µM
CC(C)C1=C2C3CCC4[C@@]5(C)CC[C@H](OC(=O)CC(C)(C)C(=O)O)C(C)(C)C5CC[C@@]4(C)[C@]3(C)CC[C@@]2(NC(=O)OCC2(N)CC2)CC1=O (stereo partly drawn) [20-12, 3β-O-(3′,3′-Dimethylsuccinyl)-17β-(1-amino-cyclopropylmethoxycarbonylamino)-21-oxolup-18-ene] | < 0.199 µM
Cc1ccncc1C(=O)N[C@@]12CC[C@]3(C)[C@H](CC[C@@H]4[C@@]5(C)CC[C@H](OC(=O)CC(C)(C)C(=O)O)C(C)(C)[C@@H]5CC[C@]43C)C1=C(C(C)C)C(=O)C2 [19-49, 3β-O-(3′,3′-Dimethylsuccinyl)-17β-(4-methylpyridin-3-yl)amido-21-oxolup-18-ene] | < 0.199 µM
Cc1cnc(C(=O)N[C@@]23CC[C@]4(C)C(CCC5[C@@]6(C)CC[C@H](OC(=O)CC(C)(C)C(=O)O)C(C)(C)C6CC[C@]54C)C2=C(C(C)C)C(=O)C3)o1 (stereo partly drawn) [19-80, 3β-O-(3′,3′-Dimethylsuccinyl)-17β-(5-methyl-[1,3]-oxazole-2-amido)-21-oxolup-18-ene] | < 0.199 µM
CC(C)C1=C2C3CCC4[C@@]5(C)CC[C@H](OC(=O)CC(C)(C)C(=O)O)C(C)(C)C5CC[C@@]4(C)[C@]3(C)CC[C@@]2(NC(=O)OCC2CCN(C)CC2)CC1=O (stereo partly drawn) [20-18, 3β-O-(3′,3′-Dimethylsuccinyl)-17β-(1-methylpiperidine-4-methoxycarbonylamino)-21-oxolup-18-ene] | < 0.199 µM
CC(C)C1=C2[C@H]3CC[C@@H]4[C@@]5(C)CC[C@H](OC(=O)CC(C)(C)C(=O)O)C(C)(C)[C@@H]5CC[C@@]4(C)[C@]3(C)CC[C@@]2(NC(=O)Nc2cncnc2)CC1=O [17-44, 3β-O-(3′,3′-Dimethylsuccinyl)-17β-(N′-pyrimidin-5-yl-ureido)-21-oxolup-18-ene] | < 0.199 µM
CC(C)C1=C2[C@H]3CC[C@@H]4[C@@]5(C)CC[C@H](OC(=O)CC(C)(C)C(=O)O)C(C)(C)[C@@H]5CC[C@@]4(C)[C@]3(C)CC[C@@]2(NC(=O)c2cccnc2)CC1=O [19-8, 3β-O-(3′,3′-Dimethylsuccinyl)-17β-(pyridin-3-yl)amido-21-oxolup-18-ene] | < 0.199 µM

Same assay, conditions: Human immunodeficiency virus 1, MT2 cells, without human serum, average IC50 if tested more than once, read-out: MT2 (HIVIIIB) IC50 range

Structure (SMILES) | IC50
CC(C)C1=C2[C@H]3CC[C@@H]4[C@@]5(C)CC[C@H](OC(=O)CC(C)(C)C(=O)O)C(C)(C)[C@@H]5CC[C@@]4(C)[C@]3(C)CC[C@@]2(NC(=O)c2cccnc2)CC1=O [19-8, 3β-O-(3′,3′-Dimethylsuccinyl)-17β-(pyridin-3-yl)amido-21-oxolup-18-ene] | < 0.199 µM
